The structures appear in SMILES notation. Some results are limits rather than exact numbers.

In data set [1] the test system is Yersinia pseudotuberculosis.
The target in data set [2] is LcrF (VirF) (Yersinia pestis, UniProt P28808). In words: biochemical. The data set is classed as binding, Y. pseudotuberculosis.
For data set [3], the target named is T1, ExsA (Pseudomonas aeruginosa, UniProt P26993).
T1 construct: made in house
T1 sequence (P26993 1-278): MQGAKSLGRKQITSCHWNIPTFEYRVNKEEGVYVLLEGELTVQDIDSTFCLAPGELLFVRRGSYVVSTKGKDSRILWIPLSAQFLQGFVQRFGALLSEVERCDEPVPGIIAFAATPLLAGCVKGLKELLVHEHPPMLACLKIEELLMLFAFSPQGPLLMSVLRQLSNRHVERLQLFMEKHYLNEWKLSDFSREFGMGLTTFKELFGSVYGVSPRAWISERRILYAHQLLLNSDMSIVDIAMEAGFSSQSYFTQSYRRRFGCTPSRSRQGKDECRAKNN
In words: In vitro activity of Mar inhibitors against ExsA: cell-free DNA binding assay. Conditions: purified ExsA from P. aeruginosa, inhibition of DNA binding in vitro.

The subject of data set [4] is P. aeruginosa. Description: Whole cell assay: cytotoxicity of P. aeruginosa toward J774 cells (CytoTox 96, LDH release). As to conditions: percent cytotoxicity of treated P. aeruginosa toward J774 cells. On the technique in general: LDH leaks from cells whose membrane has failed.

LcrF (VirF), sequence (P28808 whole entry, looked up): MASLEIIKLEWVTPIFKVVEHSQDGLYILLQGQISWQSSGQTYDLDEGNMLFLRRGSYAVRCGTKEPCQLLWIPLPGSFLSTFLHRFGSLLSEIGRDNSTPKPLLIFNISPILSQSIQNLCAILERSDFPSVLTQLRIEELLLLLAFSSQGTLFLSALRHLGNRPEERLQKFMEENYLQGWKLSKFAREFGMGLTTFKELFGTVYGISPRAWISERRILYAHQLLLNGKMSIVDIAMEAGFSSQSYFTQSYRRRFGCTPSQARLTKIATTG

By EC50 is commonly meant the concentration giving half of the maximal effect. Low values mean higher potency in that assay, high ones lower potency in that assay. Take `COc1cc(F)ccc1C(=O)Nc1ccc(-c2nc3ccc([N+](=O)[O-])cc3n2O)cc1` [T]: the “Cytotoxicity at 50 μg/mL Yersinia” value in data set [1] is on record as “** (key: *: percent cytotoxicity above 75% at 50 μg/mL; **: cytotoxicities below 75% at 50 μg/mL)”. Moreover, the EC50 in data set [2] and in data set [3] was below 10 µM in each case. In addition, the “Cytotoxicity at 50 μg/mL Pseudomonas” value in data set [4] was “* (percent cytotoxicities above 75% at 50 mg/mL)”.
For `O=C(Nc1ccc(-c2nc3ncc([N+](=O)[O-])cc3n2O)cc1)c1ccc(F)cc1` [X], the “Cytotoxicity at 50 μg/mL Yersinia” value in data set [1] is recorded as “* (key: *: percent cytotoxicity above 75% at 50 μg/mL; **: cytotoxicities below 75% at 50 μg/mL)”. Also, the EC50 in data set [2] and in data set [3] was 10.1 to 25 µM each time. For the same compound, in data set [4], the “Cytotoxicity at 50 μg/mL Pseudomonas” value was “* (percent cytotoxicities above 75% at 50 mg/mL)”.
In the case of `CC(=O)c1ccc(C(=O)Nc2ccc(-c3nc4ncc([N+](=O)[O-])cc4n3O)cc2)cc1` [Y], the “Cytotoxicity at 50 μg/mL Yersinia” value in data set [1] is recorded as “* (key: *: percent cytotoxicity above 75% at 50 μg/mL; **: cytotoxicities below 75% at 50 μg/mL)”. Besides, the EC50 in data set [2] was 10.1 to 25 µM; in data set [3], below 10 µM. Besides, in data set [4], the “Cytotoxicity at 50 μg/mL Pseudomonas” value is reported as “* (percent cytotoxicities above 75% at 50 mg/mL)”.

Values taken from patent publication US20090170812A1, “Transcription factor modulating compounds and methods of use thereof” (priority 2006, published 2009).
